# According to ChEMBL document CHEMBL1201862, “PubChem BioAssay data set” (2004):
# The source made the active and inactive calls.
# Columns and labels:
# [1] = biological target: Small ubiquitin-related modifier 1 (Homo sapiens, UniProt P63165); assay: inhibitors of SUMO1 partner interactions, dose response, biochemical, FRET (AID 624383); assay type: functional; settings: read-out: IC50_Mean
# [2] = biological target: Caspase-7 (Homo sapiens, UniProt P55210); assay: human caspase-7 inhibitors, dose response, selectivity assay for caspase-6 inhibitor project, biochemical, DEVD-R110 fluorescence, cherry-pick (AID 743295)
# Caspase-7, sequence (P55210 24-198 limits assumed): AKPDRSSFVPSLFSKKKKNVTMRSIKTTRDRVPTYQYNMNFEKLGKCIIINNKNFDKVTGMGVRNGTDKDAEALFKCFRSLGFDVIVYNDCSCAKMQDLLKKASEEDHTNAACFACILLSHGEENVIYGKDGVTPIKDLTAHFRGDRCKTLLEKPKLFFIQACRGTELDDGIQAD
# Caspase-7, sequence (P55210 207-303 limits assumed): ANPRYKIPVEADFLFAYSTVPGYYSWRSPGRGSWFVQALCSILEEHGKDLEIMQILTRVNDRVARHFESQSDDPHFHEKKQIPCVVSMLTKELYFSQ
# [3] = biological target: Dual specificity protein phosphatase 3 (Homo sapiens, UniProt P51452); assay: VHR phosphatase inhibition, dose response, selectivity assay for STEP inhibitor project, biochemical (AID 602374); assay type: functional; settings: read-out: IC50_Mean
# Dual specificity protein phosphatase 3, sequence (P51452 whole entry): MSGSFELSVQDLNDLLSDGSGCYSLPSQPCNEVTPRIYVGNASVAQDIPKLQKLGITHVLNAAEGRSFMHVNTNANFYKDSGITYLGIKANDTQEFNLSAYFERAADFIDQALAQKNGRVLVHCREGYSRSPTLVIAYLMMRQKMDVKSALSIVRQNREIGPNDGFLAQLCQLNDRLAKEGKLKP
# [4] = biological target: Polyadenylate-binding protein 1 (Homo sapiens, UniProt P11940); assay: PABP1 MLLE–PAM2 interaction inhibitors, dose response, miRNA deadenylation inhibitor project, biochemical, fluorescence polarization, Cy5-PAM2 peptide, secondary (AID 602260); assay type: functional; settings: read-out: IC50_Mean
# Polyadenylate-binding protein 1, sequence (P11940 whole entry): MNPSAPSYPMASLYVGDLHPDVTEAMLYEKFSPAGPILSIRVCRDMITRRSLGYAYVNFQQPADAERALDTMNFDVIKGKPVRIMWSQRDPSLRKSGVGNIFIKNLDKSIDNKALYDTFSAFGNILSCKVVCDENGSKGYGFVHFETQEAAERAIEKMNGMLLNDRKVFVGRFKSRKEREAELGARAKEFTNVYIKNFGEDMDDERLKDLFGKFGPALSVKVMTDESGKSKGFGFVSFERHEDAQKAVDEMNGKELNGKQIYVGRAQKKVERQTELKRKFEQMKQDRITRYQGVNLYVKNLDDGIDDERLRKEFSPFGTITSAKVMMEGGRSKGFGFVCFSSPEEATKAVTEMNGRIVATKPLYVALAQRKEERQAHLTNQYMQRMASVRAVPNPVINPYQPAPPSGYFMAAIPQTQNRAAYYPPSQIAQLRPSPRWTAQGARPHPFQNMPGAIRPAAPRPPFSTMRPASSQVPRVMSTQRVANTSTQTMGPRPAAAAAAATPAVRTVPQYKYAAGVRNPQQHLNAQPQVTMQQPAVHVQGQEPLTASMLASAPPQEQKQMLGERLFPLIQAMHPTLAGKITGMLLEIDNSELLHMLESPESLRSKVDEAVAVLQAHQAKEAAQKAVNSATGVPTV
# [5] = biological target: Tyrosine-protein phosphatase non-receptor type 5 (Homo sapiens, UniProt P54829); assay: STEP phosphatase inhibitors, confirmation, biochemical, fluorescence intensity, uHTS hits (AID 602372); assay type: functional; settings: read-out: IC50_Mean
# Tyrosine-protein phosphatase non-receptor type 5, sequence (P54829 whole entry): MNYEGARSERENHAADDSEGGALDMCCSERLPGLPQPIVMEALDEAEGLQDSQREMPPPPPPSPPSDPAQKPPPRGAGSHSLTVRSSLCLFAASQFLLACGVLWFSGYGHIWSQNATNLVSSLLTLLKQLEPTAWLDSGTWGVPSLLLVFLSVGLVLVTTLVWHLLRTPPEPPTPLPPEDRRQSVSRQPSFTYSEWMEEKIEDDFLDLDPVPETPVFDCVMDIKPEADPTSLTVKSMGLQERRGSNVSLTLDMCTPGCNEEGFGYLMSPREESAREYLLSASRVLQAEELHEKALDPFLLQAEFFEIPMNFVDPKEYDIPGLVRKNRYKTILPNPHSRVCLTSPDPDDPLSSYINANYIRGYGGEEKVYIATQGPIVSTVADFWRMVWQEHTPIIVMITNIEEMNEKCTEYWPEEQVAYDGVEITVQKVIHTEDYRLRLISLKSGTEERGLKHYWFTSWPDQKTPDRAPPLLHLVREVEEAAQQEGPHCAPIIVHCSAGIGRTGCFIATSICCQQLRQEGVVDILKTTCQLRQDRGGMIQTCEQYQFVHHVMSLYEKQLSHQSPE
# [6] = biological target: T1, Kappa-type opioid receptor (Homo sapiens, UniProt P41145); assay type: functional
# T1 sequence (P41145 whole entry): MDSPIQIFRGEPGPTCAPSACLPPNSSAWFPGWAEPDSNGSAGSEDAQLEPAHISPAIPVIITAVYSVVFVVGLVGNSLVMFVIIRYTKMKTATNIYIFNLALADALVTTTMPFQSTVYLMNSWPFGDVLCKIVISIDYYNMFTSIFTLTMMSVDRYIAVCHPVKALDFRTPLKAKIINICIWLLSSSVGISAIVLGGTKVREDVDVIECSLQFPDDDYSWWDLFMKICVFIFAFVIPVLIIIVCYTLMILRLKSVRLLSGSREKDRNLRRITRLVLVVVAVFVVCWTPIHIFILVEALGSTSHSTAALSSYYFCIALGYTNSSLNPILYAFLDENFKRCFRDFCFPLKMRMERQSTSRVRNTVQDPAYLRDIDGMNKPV
# [7] = biological target: T2, Replicative DNA helicase DnaB (Mycobacterium tuberculosis, UniProt P9WMR3); assay: DnaB intein splicing inhibitors, dose response, biochemical, cell-free fluorescence (AID 449749); assay type: functional
# T2 sequence (P9WMR3 whole entry): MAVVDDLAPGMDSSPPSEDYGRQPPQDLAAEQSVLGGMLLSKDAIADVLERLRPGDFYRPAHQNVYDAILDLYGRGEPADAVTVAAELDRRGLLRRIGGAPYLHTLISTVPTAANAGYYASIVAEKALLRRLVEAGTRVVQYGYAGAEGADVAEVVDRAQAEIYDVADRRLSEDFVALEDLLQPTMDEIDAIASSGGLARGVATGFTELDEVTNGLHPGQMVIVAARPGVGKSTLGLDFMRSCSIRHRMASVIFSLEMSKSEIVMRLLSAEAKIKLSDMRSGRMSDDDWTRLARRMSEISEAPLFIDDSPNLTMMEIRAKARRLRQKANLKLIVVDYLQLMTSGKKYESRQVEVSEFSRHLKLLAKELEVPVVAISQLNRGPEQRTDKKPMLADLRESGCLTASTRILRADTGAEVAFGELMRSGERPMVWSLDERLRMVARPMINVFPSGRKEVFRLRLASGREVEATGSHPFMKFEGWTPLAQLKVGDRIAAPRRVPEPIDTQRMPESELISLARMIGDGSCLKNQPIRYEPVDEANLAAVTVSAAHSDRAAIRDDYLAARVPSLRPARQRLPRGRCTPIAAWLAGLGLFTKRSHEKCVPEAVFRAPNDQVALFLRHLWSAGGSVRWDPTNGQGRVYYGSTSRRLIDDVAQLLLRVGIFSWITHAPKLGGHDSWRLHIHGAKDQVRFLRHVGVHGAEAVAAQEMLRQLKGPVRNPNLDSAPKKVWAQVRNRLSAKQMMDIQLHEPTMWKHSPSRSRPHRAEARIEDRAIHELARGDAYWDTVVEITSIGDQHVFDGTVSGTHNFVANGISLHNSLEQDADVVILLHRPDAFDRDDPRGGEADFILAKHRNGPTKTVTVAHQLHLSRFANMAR
# [8] = biological target: T3, Fatty acid synthase (Homo sapiens, UniProt P49327); assay: FAS thioesterase domain inhibitors, dose response, biochemical, endpoint fluorescence intensity, uHTS hits (AID 624327); assay type: functional;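 note: fluorescence from hydrolysis of an O-methyl fluorescein acyl ester substrate by the enzyme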
# T3 sequence (P49327 whole entry, the tested form may be a part): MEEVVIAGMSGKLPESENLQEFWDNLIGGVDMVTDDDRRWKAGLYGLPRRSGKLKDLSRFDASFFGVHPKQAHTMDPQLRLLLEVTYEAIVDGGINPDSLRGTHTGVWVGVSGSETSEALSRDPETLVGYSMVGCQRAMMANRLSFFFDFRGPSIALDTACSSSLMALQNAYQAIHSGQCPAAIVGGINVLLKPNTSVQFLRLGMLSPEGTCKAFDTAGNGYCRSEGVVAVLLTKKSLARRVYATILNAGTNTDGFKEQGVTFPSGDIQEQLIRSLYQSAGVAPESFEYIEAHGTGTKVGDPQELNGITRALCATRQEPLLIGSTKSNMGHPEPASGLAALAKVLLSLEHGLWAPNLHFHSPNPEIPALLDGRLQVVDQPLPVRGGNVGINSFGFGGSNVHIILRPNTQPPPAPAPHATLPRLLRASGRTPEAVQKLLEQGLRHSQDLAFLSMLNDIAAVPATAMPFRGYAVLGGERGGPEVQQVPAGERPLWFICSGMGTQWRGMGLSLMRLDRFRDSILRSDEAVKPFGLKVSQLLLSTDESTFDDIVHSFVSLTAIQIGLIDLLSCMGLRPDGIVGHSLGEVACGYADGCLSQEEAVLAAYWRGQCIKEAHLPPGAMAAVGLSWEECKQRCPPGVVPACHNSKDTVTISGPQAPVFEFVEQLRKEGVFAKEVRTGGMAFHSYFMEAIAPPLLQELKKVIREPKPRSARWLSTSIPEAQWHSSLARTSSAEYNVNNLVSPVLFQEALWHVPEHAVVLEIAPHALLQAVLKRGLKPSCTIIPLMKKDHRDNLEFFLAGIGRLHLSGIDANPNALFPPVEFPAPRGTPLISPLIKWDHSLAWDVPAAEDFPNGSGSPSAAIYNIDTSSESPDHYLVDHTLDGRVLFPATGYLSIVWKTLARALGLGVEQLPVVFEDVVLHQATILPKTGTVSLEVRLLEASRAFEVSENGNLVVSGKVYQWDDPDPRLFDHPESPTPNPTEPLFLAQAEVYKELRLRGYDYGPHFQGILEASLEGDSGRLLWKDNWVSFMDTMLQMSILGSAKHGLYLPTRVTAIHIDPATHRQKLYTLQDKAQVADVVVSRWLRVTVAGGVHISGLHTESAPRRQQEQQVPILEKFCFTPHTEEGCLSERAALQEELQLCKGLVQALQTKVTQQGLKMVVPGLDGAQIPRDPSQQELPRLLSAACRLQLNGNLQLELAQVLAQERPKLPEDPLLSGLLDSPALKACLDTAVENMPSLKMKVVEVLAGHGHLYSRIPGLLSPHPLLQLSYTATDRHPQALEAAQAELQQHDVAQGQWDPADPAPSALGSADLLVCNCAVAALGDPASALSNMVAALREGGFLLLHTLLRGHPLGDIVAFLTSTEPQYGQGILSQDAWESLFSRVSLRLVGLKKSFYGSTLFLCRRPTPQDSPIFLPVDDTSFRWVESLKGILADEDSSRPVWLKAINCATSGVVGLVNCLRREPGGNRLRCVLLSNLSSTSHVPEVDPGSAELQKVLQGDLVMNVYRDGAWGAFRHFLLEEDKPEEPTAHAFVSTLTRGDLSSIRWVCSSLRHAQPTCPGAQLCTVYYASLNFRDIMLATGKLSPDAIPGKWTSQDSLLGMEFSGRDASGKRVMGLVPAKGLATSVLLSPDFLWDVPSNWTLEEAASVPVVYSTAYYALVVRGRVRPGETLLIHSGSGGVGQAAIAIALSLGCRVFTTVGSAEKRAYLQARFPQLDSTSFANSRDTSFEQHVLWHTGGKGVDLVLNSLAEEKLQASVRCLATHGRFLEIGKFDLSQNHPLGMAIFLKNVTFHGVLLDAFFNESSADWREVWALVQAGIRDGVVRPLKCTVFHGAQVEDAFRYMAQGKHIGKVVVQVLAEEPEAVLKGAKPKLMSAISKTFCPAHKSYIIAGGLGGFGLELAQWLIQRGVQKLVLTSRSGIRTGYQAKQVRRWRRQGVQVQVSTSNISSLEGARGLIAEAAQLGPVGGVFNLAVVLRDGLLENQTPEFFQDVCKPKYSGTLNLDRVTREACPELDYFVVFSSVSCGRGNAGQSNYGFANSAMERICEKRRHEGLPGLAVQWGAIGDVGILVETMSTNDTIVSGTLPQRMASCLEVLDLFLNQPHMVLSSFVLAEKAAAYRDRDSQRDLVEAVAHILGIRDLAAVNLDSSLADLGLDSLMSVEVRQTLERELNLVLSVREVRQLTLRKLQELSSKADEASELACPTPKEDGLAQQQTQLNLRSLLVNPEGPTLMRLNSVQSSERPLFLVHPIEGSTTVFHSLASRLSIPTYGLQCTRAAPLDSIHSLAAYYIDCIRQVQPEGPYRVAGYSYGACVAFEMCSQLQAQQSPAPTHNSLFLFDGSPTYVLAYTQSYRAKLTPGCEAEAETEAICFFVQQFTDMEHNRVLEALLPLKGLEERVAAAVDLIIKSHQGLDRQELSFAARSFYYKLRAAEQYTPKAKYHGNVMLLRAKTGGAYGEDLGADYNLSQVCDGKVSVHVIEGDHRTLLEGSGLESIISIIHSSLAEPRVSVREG
# [9] = biological target: T3, Fatty acid synthase; assay: FAS thioesterase domain inhibitors, dose response, biochemical, kinetic fluorescence intensity (AID 624326); assay type: functional;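 note: rate of fluorescence rise from hydrolysis of a fluorogenic O-methyl fluorescein ester substrate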
# [10] = biological target: T1, Kappa-type opioid receptor; assay type: functional; remark: listed apart in the source
# [11] = biological target: T4, High affinity choline transporter 1 (Homo sapiens, UniProt Q9GZV3); assay: CHT inhibitors, dose response, cell-based, 5-point CRC, membrane potential dye (AID 504840); assay type: functional
# T4 sequence (Q9GZV3 whole entry): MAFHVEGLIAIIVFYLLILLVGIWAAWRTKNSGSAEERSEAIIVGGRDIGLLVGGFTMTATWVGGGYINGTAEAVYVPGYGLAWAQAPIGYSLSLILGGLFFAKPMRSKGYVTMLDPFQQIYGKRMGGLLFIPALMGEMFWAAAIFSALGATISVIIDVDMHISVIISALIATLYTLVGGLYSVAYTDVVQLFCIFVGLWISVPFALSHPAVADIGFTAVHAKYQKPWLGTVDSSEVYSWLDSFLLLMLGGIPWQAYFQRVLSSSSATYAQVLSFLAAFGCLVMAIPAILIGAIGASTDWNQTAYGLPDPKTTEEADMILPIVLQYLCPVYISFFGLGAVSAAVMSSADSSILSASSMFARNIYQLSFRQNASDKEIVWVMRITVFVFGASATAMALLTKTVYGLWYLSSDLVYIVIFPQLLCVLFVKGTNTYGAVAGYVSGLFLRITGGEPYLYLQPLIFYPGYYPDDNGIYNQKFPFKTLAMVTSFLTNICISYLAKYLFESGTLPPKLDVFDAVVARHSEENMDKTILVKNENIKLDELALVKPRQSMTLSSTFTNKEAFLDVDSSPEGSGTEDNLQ
# [12] = biological target: Mu-type opioid receptor (Homo sapiens, UniProt P35372); assay: HTS Image-Based Screen for Agonists of the MOR Receptor. [Related pubchem assays (depositor defined):AID1777, AID1785, AID1786, AID2133]; assay type: functional;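 note: imaging of beta-arrestin GFP recruitment into spots after receptor activation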
# [13] = THP-1 cell cytotoxicity, dose response, cytotoxicity control for Vif-APOBEC3G degradation inhibitor project, THP-1 cells (AID 1117359); assay type: functional; settings: Human immunodeficiency virus 1, THP-1
# Small ubiquitin-related modifier 1, sequence (P63165 whole entry): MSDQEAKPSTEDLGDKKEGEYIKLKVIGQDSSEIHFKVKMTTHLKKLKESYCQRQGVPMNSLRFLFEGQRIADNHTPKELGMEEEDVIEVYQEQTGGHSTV
SMILES,IC50 [1],AC50 [2],IC50 [3],IC50 [4],IC50 [5],IC50 [6],AC50 [7],IC50 [8],IC50 [9],IC50 [10],IC50 [11],EC50 [12],CC50 [13]
O=S(=O)(O)c1cc(O)c2cc(Nc3ccccc3)ccc2c1,4.47 µM (active),30.2 µM (active),0.485 µM (active),> 66 µM (inactive),6.49 µM (active),–,–,–,–,–,–,–,–
O=[N+]([O-])c1c(Nc2ccccc2O)cc(Cl)c2nonc12,–,–,–,–,–,2.89 µM (active),2.19 µM (active),14.6 µM (active),7.45 µM (active),11.5 µM,13.2 µM (active),> 32 µM (inactive),12.2 µM (active)
